The source of these data is ChEMBL document CHEMBL3994622, “Design and synthesis of new RAF kinase-inhibiting antiproliferative quinoline derivatives. Part 2: Diarylurea derivatives” (Eur J Med Chem, 2017).

Holding throughout (type): functional
Test [1] relates to HCC 2998. Nature of the test: Growth inhibition of human HCC2998 cells assessed as cell growth at 0.01 uM incubated for 48 hrs by sulforhodamine B assay relative to control. The conditions noted are these: HCC 2998, 48 h, read-out: Activity. A general note: The SRB assay estimates cell density from bound dye.
In the next test the test system is OVCAR-5. Nature of the test: Growth inhibition of human OVCAR5 cells assessed as cell growth at 0.01 uM incubated for 48 hrs by sulforhodamine B assay relative to control. The conditions noted are these: OVCAR-5, 48 h, read-out: Activity.
For test [2], the system named is MCF7. Nature of the test: Growth inhibition of human MCF7 cells assessed as cell growth at 0.01 uM incubated for 48 hrs by sulforhodamine B assay relative to control. The conditions noted are these: MCF7, 48 h, read-out: Activity.
For test [3], the system named is HT-29. The test is described as follows: Growth inhibition of human HT-29 cells assessed as cell growth at 0.1 uM incubated for 48 hrs by sulforhodamine B assay relative to control. The conditions noted are these: HT-29, 48 h, read-out: Activity.
The subject of another test is OVCAR-4. Nature of the test: Growth inhibition of human OVCAR4 cells assessed as cell growth at 0.1 uM incubated for 48 hrs by sulforhodamine B assay relative to control. The settings on record: OVCAR-4, 48 h, read-out: Activity.
In another test the test system is OVCAR-8. The test is described as follows: Growth inhibition of human OVCAR8 cells assessed as cell growth at 0.1 uM incubated for 48 hrs by sulforhodamine B assay relative to control. The settings on record: OVCAR-8, 48 h, read-out: Activity.
Test [4] concerns DU-145. The test is described as follows: Growth inhibition of human DU145 cells assessed as cell growth at 0.1 uM incubated for 48 hrs by sulforhodamine B assay relative to control. The conditions noted are these: DU-145, 48 h, read-out: Activity.
In another test the test system is NCI-H522. Nature of the test: Growth inhibition of human NCI-H522 cells assessed as cell growth at 1 uM incubated for 48 hrs by sulforhodamine B assay relative to control. The conditions noted are these: NCI-H522, 48 h, read-out: Activity.
Test [5] relates to HCC 2998. The test is described as follows: Growth inhibition of human HCC2998 cells assessed as cell growth at 1 uM incubated for 48 hrs by sulforhodamine B assay relative to control. The conditions noted are these: HCC 2998, 48 h, read-out: Activity.
The test system of the next test is SK-MEL-28. The test is described as follows: Growth inhibition of human SK-MEL-28 cells assessed as cell growth at 1 uM incubated for 48 hrs by sulforhodamine B assay relative to control. The settings on record: SK-MEL-28, 48 h, read-out: Activity.
Test [6] concerns OVCAR-3. The test is described as follows: Growth inhibition of human OVCAR3 cells assessed as cell growth at 1 uM incubated for 48 hrs by sulforhodamine B assay relative to control. The settings on record: OVCAR-3, 48 h, read-out: Activity.
Test [7] has as its system SK-OV-3. Nature of the test: Growth inhibition of human SKOV3 cells assessed as cell growth at 1 uM incubated for 48 hrs by sulforhodamine B assay relative to control. The conditions noted are these: SK-OV-3, 48 h, read-out: Activity.
In another test the test system is NCI-H226. Nature of the test: Growth inhibition of human NCI-H226 cells assessed as cell growth at 10 uM incubated for 48 hrs by sulforhodamine B assay relative to control. The conditions noted are these: NCI-H226, 48 h, read-out: Activity.
The test system of the next test is COLO 205. Nature of the test: Growth inhibition of human COLO205 cells assessed as cell growth at 10 uM incubated for 48 hrs by sulforhodamine B assay relative to control. The settings on record: COLO 205, 48 h, read-out: Activity.
For test [8], the system named is UACC-62. The test is described as follows: Growth inhibition of human UACC62 cells assessed as cell growth at 10 uM incubated for 48 hrs by sulforhodamine B assay relative to control. The settings on record: UACC-62, 48 h, read-out: Activity.
The next test has as its system CAKI-1. Nature of the test: Growth inhibition of human Caki1 cells assessed as cell growth at 10 uM incubated for 48 hrs by sulforhodamine B assay relative to control. The conditions noted are these: CAKI-1, 48 h, read-out: Activity.
In the next test the test system is RXF 393. The test is described as follows: Growth inhibition of human RXF393 cells assessed as cell growth at 10 uM incubated for 48 hrs by sulforhodamine B assay relative to control. The settings on record: RXF 393, 48 h, read-out: Activity.
The subject of a further test is NCI-H322M. Nature of the test: Growth inhibition of human NCI-H322M cells assessed as cell growth at 100 uM incubated for 48 hrs by sulforhodamine B assay relative to control. The settings on record: read-out: Activity.
For test [9], the system named is SK-MEL-5. The test is described as follows: Growth inhibition of human SK-MEL-5 cells assessed as cell growth at 100 uM incubated for 48 hrs by sulforhodamine B assay relative to control. The conditions noted are these: SK-MEL-5, 48 h, read-out: Activity.
In test [10] the test system is UACC-62. The test is described as follows: Growth inhibition of human UACC62 cells assessed as cell growth at 100 uM incubated for 48 hrs by sulforhodamine B assay relative to control. The settings on record: UACC-62, 48 h, read-out: Activity.
Test [11] concerns DU-145. Nature of the test: Growth inhibition of human DU145 cells assessed as cell growth at 100 uM incubated for 48 hrs by sulforhodamine B assay relative to control. The settings on record: DU-145, 48 h, read-out: Activity.
The test system of the next test is K562. The test is described as follows: Growth inhibition of human K562 cells assessed as cell growth at 0.003 uM incubated for 48 hrs by sulforhodamine B assay relative to control. The settings on record: K562, 48 h, read-out: Activity.
The subject of test [12] is SK-OV-3. Nature of the test: Growth inhibition of human SKOV3 cells assessed as cell growth at 0.003 uM incubated for 48 hrs by sulforhodamine B assay relative to control. The conditions noted are these: SK-OV-3, 48 h, read-out: Activity.
Test [13] concerns A549. Nature of the test: Growth inhibition of human A549/ATCC cells assessed as cell growth at 0.03 uM incubated for 48 hrs by sulforhodamine B assay relative to control. The settings on record: A549, 48 h, read-out: Activity.
In test [14] the test system is SK-MEL-5. The test is described as follows: Growth inhibition of human SK-MEL-5 cells assessed as cell growth at 0.03 uM incubated for 48 hrs by sulforhodamine B assay relative to control. The settings on record: SK-MEL-5, 48 h, read-out: Activity.
For test [15], the system named is SK-OV-3. Nature of the test: Growth inhibition of human SKOV3 cells assessed as cell growth at 0.03 uM incubated for 48 hrs by sulforhodamine B assay relative to control. The settings on record: SK-OV-3, 48 h, read-out: Activity.
In test [16] the test system is A549. Nature of the test: Growth inhibition of human A549/ATCC cells assessed as cell growth at 0.3 uM incubated for 48 hrs by sulforhodamine B assay relative to control. The settings on record: A549, 48 h, read-out: Activity.
Another test has as its system SF-539. The test is described as follows: Growth inhibition of human SF539 cells assessed as cell growth at 0.3 uM incubated for 48 hrs by sulforhodamine B assay relative to control. The settings on record: SF-539, 48 h, read-out: Activity.
Test [17] relates to SK-MEL-5. Nature of the test: Growth inhibition of human SK-MEL-5 cells assessed as cell growth at 0.3 uM incubated for 48 hrs by sulforhodamine B assay relative to control. The conditions noted are these: SK-MEL-5, 48 h, read-out: Activity.
Test [18] relates to OVCAR-3. The test is described as follows: Growth inhibition of human OVCAR3 cells assessed as cell growth at 0.3 uM incubated for 48 hrs by sulforhodamine B assay relative to control. The settings on record: OVCAR-3, 48 h, read-out: Activity.
Another test deals with HCT-15. Nature of the test: Growth inhibition of human HCT15 cells assessed as cell growth at 3 uM incubated for 48 hrs by sulforhodamine B assay relative to control. The settings on record: HCT-15, 48 h, read-out: Activity.
For test [19], the system named is MCF7. Nature of the test: Growth inhibition of human MCF7 cells assessed as cell growth at 3 uM incubated for 48 hrs by sulforhodamine B assay relative to control. The conditions noted are these: MCF7, 48 h, read-out: Activity.
Test [20] concerns HCC 2998. The test is described as follows: Growth inhibition of human HCC2998 cells assessed as cell growth at 30 uM incubated for 48 hrs by sulforhodamine B assay relative to control. The settings on record: HCC 2998, 48 h, read-out: Activity.
For test [21], the system named is HT-29. The test is described as follows: Growth inhibition of human HT-29 cells assessed as cell growth at 30 uM incubated for 48 hrs by sulforhodamine B assay relative to control. The settings on record: HT-29, 48 h, read-out: Activity.
A further test has as its system SF-268. Nature of the test: Growth inhibition of human SF268 cells assessed as cell growth at 30 uM incubated for 48 hrs by sulforhodamine B assay relative to control. The settings on record: SF-268, 48 h, read-out: Activity.

On to `COc1cc2cc(Oc3ccc(NC(=O)Nc4cc(C(F)(F)F)cc(C(F)(F)F)c4)cc3)c(C)nc2cc1OC`, for which the growth at 0.01 µM is 99% in the test with HCC 2998 [1], 87% in the test on OVCAR-5 and 85% in the test on MCF7 [2]. Moreover, the growth at 0.1 µM came to 97% with HT-29 [3], 83% with OVCAR-4, 110% in the test on OVCAR-8 and 100% in the test on DU-145 [4]. Also, the growth at 1 µM was found to be 63% in the test with NCI-H522; 79% with HCC 2998 [5]; 59% in the test with SK-MEL-28; 27% with OVCAR-3 [6]; 88% in the test with SK-OV-3 [7]. In addition, the growth at 10 µM was -60% in the test with NCI-H226; -74% with COLO 205; -74% with UACC-62 [8]; -26% with CAKI-1; -44% with RXF 393. Also, the growth at 100 µM with NCI-H322M was -91%; in the test on SK-MEL-5 [9], -93%; in the test on UACC-62 [10], -79%; in the test on DU-145 [11], -96%.

With `Cc1nc2cc(O)c(O)cc2cc1Oc1ccc(NC(=O)Nc2ccc(Cl)c(Cl)c2)cc1`, the growth at 0.003 µM in the test with K562 stood at 122%; with SK-OV-3 [12], 104%. The values for the growth at 0.03 µM in the test on A549 [13], in the test with SK-MEL-5 [14] and in the test on SK-OV-3 [15] were 98%, 101% and 102%, respectively. For the same molecule, the growth at 0.3 µM was determined as 96% in the test with A549 [16], 99% with SF-539, 97% in the test with SK-MEL-5 [17] and 109% in the test with OVCAR-3 [18]. For the same molecule, the growth at 3 µM turned out to be 62% in the test on HCT-15 and 87% with MCF7 [19]. Further, the growth at 30 µM with HCC 2998 [20] is -51%; in the test with HT-29 [21], 13%; in the test with SF-268, 1%.

`COc1cc2cc(Oc3ccc(NC(=O)Nc4ccc(Cl)c(Cl)c4)cc3)c(C)nc2cc1OC`: the growth at 0.01 µM with HCC 2998 [1] came out at 101%; in the test on OVCAR-5 it was 103%; in the test on MCF7 [2], 95%. Further, the growth at 0.1 µM in the test with HT-29 [3] amounted to 110%; in the test on OVCAR-4, 87%; in the test with OVCAR-8, 100%; in the test with DU-145 [4] it was 110%. The growth at 1 µM with NCI-H522 worked out at 68%; in the test on HCC 2998 [5], 96%; in the test on SK-MEL-28, 97%; with OVCAR-3 [6], 94%; in the test with SK-OV-3 [7] it was 112%. In addition, the growth at 10 µM is -7% in the test on NCI-H226; -25% in the test on COLO 205; 25% with UACC-62 [8]; -18% with CAKI-1; 19% with RXF 393. Further, the growth at 100 µM is -13% with NCI-H322M, -93% with SK-MEL-5 [9], -63% in the test on UACC-62 [10] and -64% in the test on DU-145 [11].

Take `COc1cc2cc(Oc3ccc(NC(=O)Nc4ccc(Cl)c(C(F)(F)F)c4)cc3)c(C)nc2cc1OC`: the results for the growth at 0.003 µM in the test on K562 and in the test on SK-OV-3 [12] were 95% and 101%, respectively. The growth at 0.03 µM in the test on A549 [13] stood at 100%; with SK-MEL-5 [14], 92%; in the test with SK-OV-3 [15], 100%. For the same molecule, the growth at 0.3 µM in the test with A549 [16] was determined as 89%; with SF-539, 107%; with SK-MEL-5 [17], 94%; in the test on OVCAR-3 [18] it was 95%. In addition, the growth at 3 µM was 16% with HCT-15 and 7% in the test with MCF7 [19]. In addition, the growth at 30 µM in the test on HCC 2998 [20] is -98%; in the test with HT-29 [21], -82%; in the test with SF-268, -64%.
